# Source: patent US20100249076A1, “PRODRUGS OF 9-AMINOMETHYL TETRACYCLINE COMPOUNDS” (priority 2003, published 2010)
# Like-named read-outs stand apart in the source and are kept apart here.
# Key:
# Assay type in all cases: in vivo
# [1] = system: S. pneumoniae 157E; assay: Oral efficacy (PD50) in mice with acute systemic infection by susceptible S. pneumoniae; settings: Streptococcus pneumoniae, read-out: PD50, S. pneumoniae 157E
# Method: (§1) Relative to linezolid, the PD50 values for a number of the compounds were within an 2-fold range against the resistant organism. Compounds with PD50 values of less than 7 mg/kg/dose are indicated with “***.” Compounds with PD50 values of less than 14 mg/kg/dose but greater than 7 mg/kg/dose are indicated with “**.” Compounds with PD50 values of greater than 14 mg/kg/dose, but less than 21 mg/kg/dose are indicated with “*.” Compounds with PD50 values greater than 21 mg/kg/dose are indicated with “−”
# [2] = system: S. pneumoniae 157E (tet^S); assay: Oral efficacy screen, murine model of S. pneumoniae systemic infection (survival); settings: Streptococcus pneumoniae, 1 h, read-out: % survival at 10 (po) mg/kg
# Method: The following example was used to assess the oral bioavailability of compounds of the invention in an oral efficacy screen in murine models of infection. The compounds were screened by administering a single 10 mg/kg oral dose to mice 1 hour after administration of a lethal intraperitoneal inoculum of S. pneumoniae 157E (tet^S).
# In Table 1 below, compounds with a survival rate of ≧80% are indicated with ‘***”; compounds with a survival rate of ≧60% are indicated with ‘**” and compounds with a survival rate of […] are indicated with ‘*’. Compounds with a survival rate of less than 20% are indicated with ‘−’.
# [3] = system: S. pneumoniae 700905; assay: Oral efficacy (PD50) in mice with acute systemic infection by resistant S. pneumoniae; settings: Streptococcus pneumoniae, resistant S. pneumoniae 700905
# Method: as §1
# [4] = mice, oral, acute systemic infection, susceptible S. pneumoniae 157E
structure (smiles),measurement,setting,value
CN(C)c1cc(CN(CC(C)(C)C)C(=O)OCOC(=O)C(C)(C)C)c(O)c2c1C[C@H]1C[C@H]3[C@H](N(C)C)C(O)=C(C(N)=O)C(=O)[C@@]3(O)C(O)=C1C2=O [A],ED50,"[1]; 157E, po",< 7 mg/kg
same,responders at 10 mg/kg,[2],> 80%
same,ED50,[3],< 7 mg/kg
"CC1(C)S[C@@H]2[C@H](NC(=O)[C@H](N)c3ccccc3)C(=O)N2[C@H]1C(=O)O [Ampicillin, reference compound]",ED50,[1]; [4],14 to 21 mg/kg
"CC[C@H]1OC(=O)[C@H](C)[C@@H](O[C@H]2C[C@@](C)(OC)[C@@H](O)[C@H](C)O2)[C@H](C)[C@@H](O[C@@H]2O[C@H](C)C[C@H](N(C)C)[C@H]2O)[C@](C)(O)C[C@@H](C)CN(C)[C@H](C)[C@@H](O)[C@]1(C)O [Azithromycin, reference compound]",ED50,[1]; [4],7 to 14 mg/kg
CC(=O)OCOC(=O)N(Cc1cc(N(C)C)c2c(c1O)C(=O)C1=C(O)[C@]3(O)C(=O)C(C(N)=O)=C(O)[C@@H](N(C)C)[C@@H]3C[C@@H]1C2)CC(C)(C)C [B],ED50,"[1]; 157E, po",7 to 14 mg/kg
same,responders at 10 mg/kg,[2],> 80%
same,ED50,[3],7 to 14 mg/kg
CN(C)c1cc(CN(CC(C)(C)C)C(=O)OCOC(=O)c2ccccc2)c(O)c2c1C[C@H]1C[C@H]3[C@H](N(C)C)C(O)=C(C(N)=O)C(=O)[C@@]3(O)C(O)=C1C2=O [D],ED50,"[1]; 157E, po",< 7 mg/kg
same,responders at 10 mg/kg,[2],> 0%
"C[C@H]1c2cccc(O)c2C(=O)C2=C(O)[C@]3(O)C(=O)C(C(N)=O)=C(O)[C@@H](N(C)C)[C@@H]3[C@@H](O)[C@@H]21 [Doxycycline, reference compound]",ED50,[1]; [4],< 7 mg/kg
CN(C)c1cc(CN(CC(C)(C)C)C(=O)OCOC(=O)CCc2ccccc2)c(O)c2c1C[C@H]1C[C@H]3[C@H](N(C)C)C(O)=C(C(N)=O)C(=O)[C@@]3(O)C(O)=C1C2=O [E],responders at 10 mg/kg,[2],> 0%
CN(C)c1cc(CN(CC(C)(C)C)C(=O)OCOC(=O)C2CCCCC2)c(O)c2c1C[C@H]1C[C@H]3[C@H](N(C)C)C(O)=C(C(N)=O)C(=O)[C@@]3(O)C(O)=C1C2=O [F],ED50,"[1]; 157E, po",< 7 mg/kg
same,responders at 10 mg/kg,[2],> 60%
same,ED50,[3],14 to 21 mg/kg
COc1ccc(C(=O)OCOC(=O)N(Cc2cc(N(C)C)c3c(c2O)C(=O)C2=C(O)[C@]4(O)C(=O)C(C(N)=O)=C(O)[C@@H](N(C)C)[C@@H]4C[C@@H]2C3)CC(C)(C)C)cc1 [G],ED50,"[1]; 157E, po",7 to 14 mg/kg
same,responders at 10 mg/kg,[2],> 60%
CN(C)c1cc(CN(CC(C)(C)C)C(=O)OCOC(=O)CC(C)(C)C)c(O)c2c1C[C@H]1C[C@H]3[C@H](N(C)C)C(O)=C(C(N)=O)C(=O)[C@@]3(O)C(O)=C1C2=O [H],ED50,"[1]; 157E, po",< 7 mg/kg
same,responders at 10 mg/kg,[2],> 80%
same,ED50,[3],7 to 14 mg/kg
CC(OC(=O)N(Cc1cc(N(C)C)c2c(c1O)C(=O)C1=C(O)[C@]3(O)C(=O)C(C(N)=O)=C(O)[C@@H](N(C)C)[C@@H]3C[C@@H]1C2)CC(C)(C)C)OC(=O)C(C)(C)C (some centres unmarked) [I],responders at 10 mg/kg,[2],> 80%
same,ED50,[3],7 to 14 mg/kg
COCC(=O)OCOC(=O)N(Cc1cc(N(C)C)c2c(c1O)C(=O)C1=C(O)[C@]3(O)C(=O)C(C(N)=O)=C(O)[C@@H](N(C)C)[C@@H]3C[C@@H]1C2)CC(C)(C)C [J],responders at 10 mg/kg,[2],> 0%
COCCC(=O)OCOC(=O)N(Cc1cc(N(C)C)c2c(c1O)C(=O)C1=C(O)[C@]3(O)C(=O)C(C(N)=O)=C(O)[C@@H](N(C)C)[C@@H]3C[C@@H]1C2)CC(C)(C)C [K],ED50,"[1]; 157E, po",< 7 mg/kg
same,responders at 10 mg/kg,[2],> 80%
same,ED50,[3],14 to 21 mg/kg
COCCOCC(=O)OCOC(=O)N(Cc1cc(N(C)C)c2c(c1O)C(=O)C1=C(O)[C@]3(O)C(=O)C(C(C)=O)=C(O)[C@@H](N(C)C)[C@@H]3C[C@@H]1C2)CC(C)(C)C [L],responders at 10 mg/kg,[2],> 60%
"CC(=O)NC[C@H]1CN(c2ccc(N3CCOCC3)c(F)c2)C(=O)O1 [Linezolid, reference compound]",ED50,[1]; [4],< 7 mg/kg
same,ED50,[3],7 to 14 mg/kg
CN(C)c1cc(CN(CC(C)(C)C)C(=O)OCOC(=O)c2ccc(C(F)(F)F)cc2)c(O)c2c1C[C@H]1C[C@H]3[C@H](N(C)C)C(O)=C(C(N)=O)C(=O)[C@@]3(O)C(O)=C1C2=O [M],responders at 10 mg/kg,[2],> 80%
"CN(C)c1ccc(O)c2c1C[C@H]1C[C@H]3[C@H](N(C)C)C(O)=C(C(N)=O)C(=O)[C@@]3(O)C(O)=C1C2=O [Minocycline, reference compound]",ED50,[1]; [4],7 to 14 mg/kg
CN(C)c1cc(CN(CC(C)(C)C)C(=O)OCOC(=O)c2c(F)cccc2F)c(O)c2c1C[C@H]1C[C@H]3[C@H](N(C)C)C(O)=C(C(N)=O)C(=O)[C@@]3(O)C(O)=C1C2=O [N],responders at 10 mg/kg,[2],> 80%
same,ED50,[3],14 to 21 mg/kg
CN(C)c1cc(CN(CC(C)(C)C)C(=O)OCOC(=O)Cc2ccccc2)c(O)c2c1C[C@H]1C[C@H]3[C@H](N(C)C)C(O)=C(C(N)=O)C(=O)[C@@]3(O)C(O)=C1C2=O [O],responders at 10 mg/kg,[2],> 60%
same,ED50,[3],7 to 14 mg/kg
CCC(=O)OCOC(=O)N(Cc1cc(N(C)C)c2c(c1O)C(=O)C1=C(O)[C@]3(O)C(=O)C(C(N)=O)=C(O)[C@@H](N(C)C)[C@@H]3C[C@@H]1C2)CC(C)(C)C [P],responders at 10 mg/kg,[2],> 80%
same,ED50,[3],14 to 21 mg/kg
CCCC(=O)OCOC(=O)N(Cc1cc(N(C)C)c2c(c1O)C(=O)C1=C(O)[C@]3(O)C(=O)C(C(N)=O)=C(O)[C@@H](N(C)C)[C@@H]3C[C@@H]1C2)CC(C)(C)C [Q],responders at 10 mg/kg,[2],> 80%
same,ED50,[3],14 to 21 mg/kg
CC(C)C(=O)OCOC(=O)N(Cc1cc(N(C)C)c2c(c1O)C(=O)C1=C(O)[C@]3(O)C(=O)C(C(N)=O)=C(O)[C@@H](N(C)C)[C@@H]3C[C@@H]1C2)CC(C)(C)C [R],responders at 10 mg/kg,[2],> 80%
same,ED50,[3],7 to 14 mg/kg
